Patent US8491946B2, “Elastase inhibitor” (Shiseido Company, Ltd., priority 2010, dated 2013)
“Also recorded” adds a separate entry of the source.

Molecular target: T1, Human leukocyte-derived elastase (Homo sapiens, UniProt P08246)
T1 construct: purchased Elastin Product Co., Inc. CK828; host or cells: human leukocytes (leukocyte-derived)
T1 sequence (P08246 30-247 limits assumed): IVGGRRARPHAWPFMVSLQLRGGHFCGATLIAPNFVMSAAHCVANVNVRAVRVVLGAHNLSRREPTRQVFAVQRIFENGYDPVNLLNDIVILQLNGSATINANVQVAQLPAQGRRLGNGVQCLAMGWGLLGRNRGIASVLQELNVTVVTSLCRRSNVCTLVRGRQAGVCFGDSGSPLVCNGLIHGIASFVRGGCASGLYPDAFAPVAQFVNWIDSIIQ
Assay: elastase inhibition assay with fluorogenic substrate
Type: biochemical
Settings: FIG. 1; drug alone or raspberry extract combined with hydroxyproline; 60 minutes at 37° C.
Experimental: A solution containing 0.1 M HEPES and 0.5 M NaCl (pH 7.5) was used as a reaction buffer. Oxysuccinyl-(Ala)2-Pro-Val-MCA (Peptide Institute Cat. No. 3153-v) was used for the elastase substrate and dissolved in DMSO to a concentration of 80 mM followed by diluting to 0.16 mM with the reaction buffer. Human leukocyte-derived elastase (Elastin Product Co., Inc. Cat No. CK828) was diluted to 5 μg/mL with the reaction buffer.
25 μL aliquots of the 0.16 mM elastase substrate were dispensed into the wells of a 96-well plate followed by the addition of 50 μL of each drug. Next, 25 μL of ice-cooled 5 μg/mL elastase were added and incubated for 60 minutes at 37° C. followed by measuring fluorescence at 460 nm at an exciting wavelength of 369 nm. Raspberry extract BG manufactured by Maruzen Pharmaceuticals was used for the raspberry extract, L-hydroxyproline manufactured by Kyowa Hakko was used for the hydroxyproline, and Biodyne EMPP™ manufactured by Arch Personal Care Products L.P. was used for the yeast extract. Raspberry extract BG is a 1,3-butyleneglycol (50% aqueous solution) extract of raspberry fruit.

In the case of `O=C(O)[C@@H]1C[C@@H](O)CN1` [hydroxyproline, L-hydroxyproline], the elastase inhibitory effects is reported as “elastase inhibitory effects were not demonstrated; also recorded: does not demonstrate elastase inhibitory effects alone”.
